Laboratory results reported in US12558386B2, “Methods and compositions to modulate antibiotic resistance and gastrointestinal microbiota” (OHIO STATE INNOVATION FOUNDATION, priority 2018, dated 2026).
Converted amounts (≈) assume the structure as drawn.

Columns and labels:
E. coli CA-1 = assay: MIC assessment (TREK Sensititre); format: cell-based, Escherichia coli; settings: Escherichia coli, CA1; E. coli CA-1; read-out: MIC
Text: Bacterial strains. Multiple Amp^r strains from feces of broiler chickens without antibiotic treatment were recovered on Columbia blood Agar base (Becton, […] Dickinson and Company, Franklin Lakes, NJ) supplemented with 5% defibrinated sheep blood (Thermo Scientific™, Grand Island, NY).
(§1) Minimum inhibition concertation (MIC) assessment. A TREK Sensititre diagnostic system (Thermo scientific, Oakwood Village, OH, USA) was used to assess the AR phenotype and MIC of isolated strains. Protocols to use this system can be found on www.trekds.com. Cation-adjusted Mueller Hinton Broth (Becton, Dickinson and Company, MD, USA) was used as basic medium.

[1] = tested on: Lactobacillus crispatus CG-12; assay: MIC assessment (TREK Sensititre); format: cell-based; settings: Lactobacillus crispatus, CG12; L. crispatus CG-12; read-out: MIC
Experimental: (§2) Multiple commensal bacterial strains from chicken feces were recovered from Columbia blood Agar base (Becton, […] Dickinson and Company, Franklin Lakes, NJ) supplemented with 5% defibrinated sheep blood (Thermo Scientific™, Grand Island, NY), and maintained in Columbia broth (Becton Dickinson and Company, Franklin Lakes, NJ) and propagated by anaerobic growth at 37° C. The strains were subjected to antibiotic susceptibility assessment followed by strain identification.
as §1

CG-12 = assay: Screening of antibiotic susceptible commensal strains on antibiotic agar plates; format: cell-based, Lactobacillus crispatus; settings: 16 μg/mL tetracycline, 100 μg/mL erythromycin, 32 μg/mL ampicillin, 152 μg/mL sulfamethoxazole with 8 μg/mL trimethoprim
Experimental: as §2
Screening of antibiotic susceptible commensal strains. Recovered commensal strain isolates (over 1000 colonies) were spotted on Columbia broth (Becton, […] Dickinson and Company, Franklin Lakes, NJ) agar plates containing each of the four antibiotics for rapid assessment of phenotypic resistance profiles. Screened antibiotics included 16 μg/mL tetracycline (Sigma-Aldrich, St. Louis, MO, USA), 100 μg/mL erythromycin (Fisher Scientific, Waltham, MA, USA), 32 μg/mL ampicillin (Sigma-Aldrich), and 152 μg/mL sulfamethoxazole (Sigma-Aldrich) with 8 μg/mL trimethoprim (Sigma-Aldrich).

16S rRNA gene pool = assay: Chicken model, qPCR of fecal DNA; format: in vivo, Leghorn chicken; settings: Lc = Lc-Amp group, Amp = Saline-Amp group
Text: (§3) The chicken model. All procedures were approved by the Institutional Animal Care and Use Committee (protocol No. 2012A00000061, The Ohio State University, Columbus, OH). Leghorn chicken were hatched and maintained at the Ohio Agricultural Research and Development Center (OARDC) poultry research teaching farm (two birds per cage with separate feed and water supply, controlled temperature, filtered air in the room and sterilized feed). Chicken fecal samples were collected on-site and examined for the presence of blaCMY-2 gene pools and microbial profile. Beginning on Day 5 post-hatch, chicken were inoculated with a blaCMY-2^+ E. coli cocktail (0.2 mL/bird, 10^6 CFU/mL) every 24 hours for 4 consecutive days via gavage feeding using 20 ga×1.5 inch animal feeding needle (Fine Science Tools, Foster City, CA, USA). Chickens in non-inoculated control groups were fed with 0.2 mL of saline by the same method. Chickens were then set in cages for 11 days before antibiotic treatment, allowing the microbiota to stabilize.
(§4) Lactobacillus crispatus and antibiotic administration. Lactobacillus crispatus CG-12 was susceptible to ampicillin. To monitor the impact of CG-12 on AR profiles during common ampicillin administration practice, low veterinary Amp dosages (30 mg/kg body weight per day) were selected instead of 300 mg/kg/day. Lactobacillus crispatus CG-12 was administrated in three periods: 1) Day 2 to Day 4 post-hatch; 2) throughout the stabilization; and 3) post-antibiotic challenge on Day 25 to Day 28. During these periods, chickens were inoculated with a Lactobacillus crispatus CG-12 suspension (0.2 mL/bird, 10^6 CFU/mL) every 24 hours for 4 consecutive days via gavage feeding using 20 ga×1.5 inch animal feeding needle (Fine Science Tools, Foster City, CA, USA). Each group contained at least 6 chickens.
(§5) Sample collection. Fresh feces were collected from each chicken on-site in the rearing facility. Fecal samples were collected at the 1st and last day of Lactobacillus inoculation, once a day during the antibiotic administration period, and once every three days during antibiotic withdrawal period up to 14 days from initial antibiotic exposure.
(§6) DNA extraction. Total DNA from chicken fecal samples for real-time quantitative PCR (qPCR) and denaturing gradient gel electrophoresis (DGGE) analyses were extracted according to a published method (Yu and Morrison 2004).
(§7) Real-time quantitative PCR. TaqMan real-time PCR protocol was used to assess blaCMY-2 and 16S rRNA gene pools in total DNA extracted from chicken fecal samples, as described previously (Zhang et al., 2013). […] Each sample was assessed and analyzed in duplicates on a CFX96 system (Bio-Rad, Hercules, CA, USA).

blaCMY-2 gene pool = assay: Chicken model, qPCR of fecal DNA; format: in vivo, Leghorn chicken; settings: Lc = Lc-Amp group, Amp = Saline-Amp group
Text: as §3, §4, §5, §6, §7

[2] = tested on: Amp^r (ESBL) Escherichia coli strains M9-1, M9-4, M9-12 and 933-36; assay: MIC of the Amp^r marker strains (previously identified); format: cell-based; settings: antibiotic not given
poultry gut microbiota = assay: Impact of ampicillin administration routes on poultry gut microbiota (FIG. 7); format: in vivo, chickens; settings: Day 25
Text: (A) NI-Saline-PO; (B) NI-Amp-IM; (C) NI-Amp-PO; (D) Amp-IM; (E) Amp-PO.
The impact of ampicillin administration routes and inoculation of Amp^r E. coli on poultry gut microbiota. FIG. 7A-B illustrates the impact of ampicillin application on gut microbiota of chickens. The data illustrated that without antibiotic application (FIG. 7A), Lactobacillus dominant, E. coli/Shegilla insignificant. […] The results clearly illustrated the major impact on oral ampicillin administration on poultry gut microbiota by diminishing Lactobacillus, increasing Clostridium, and massively increase […] due to Amp^r E. coli in inoculated chickens and Klebsiella in non-inoculated chickens.

[3] = Day 21, during oral Amp 30 mg/kg/day

## CC1(C)S[C@@H]2[C@H](NC(=O)[C@H](N)c3ccccc3)C(=O)N2[C@H]1C(=O)O [AMP, ampicillin]
E. coli CA-1
  MIC: > 16 mg/L
[1]
  MIC: 0.5 mg/L (≈ 1.43 µM)
CG-12
  phenotypic susceptibility on antibiotic agar plates: susceptible
16S rRNA gene pool; [3]
  16S rRNA gene pool: 8.5±0.7 log10 (gene copies/g)
16S rRNA gene pool; Day 25, after Amp treatment
  16S rRNA gene pool: 10.5±1.0 log10 (gene copies/g)
blaCMY-2 gene pool; [3]
  blaCMY-2 gene pool: 8.7±0.8 log10 (gene copies/g)
blaCMY-2 gene pool; Day 25, after Amp treatment
  blaCMY-2 gene pool: 9.8±0.9 log10 (gene copies/g)
[2]
  MIC: > 256 mg/L
Poultry gut microbiota; muscle injection, inoculated with E. coli cocktail (FIG. 7D)
  change of gut microbiota: Firmicutes still dominant but with which Lactobacillus drastically reduced
Poultry gut microbiota; muscle injection, without inoculation of E. coli cocktail (FIG. 7B)
  change of gut microbiota: minimal changes
Poultry gut microbiota; oral feeding, inoculated with E. coli cocktail (FIG. 7E)
  change of gut microbiota: Firmicutes changed from dominant to minority
Poultry gut microbiota; oral, without inoculation of E. coli cocktail (FIG. 7C)
  change of gut microbiota: decrease of Firmicutes (still dominant) and significant increase of Proteobacteria
